Data on three molecules can be found in patent US20220088004A1, “COMPOSITION FOR COMPETITIVE INHIBITION OF OREXIN RECEPTORS” (SUNTORY HOLDINGS LIMITED, priority 2019, published 2022).

SMILES strings stand for the structures.

In series [1] the test system is orexin receptor. Conditions: injection; amyloid precursor protein transgenic mice; cited from earlier work.
For the next series, the system named is HEK293T cells. Kind of series: WST-8 Cell Proliferation Assay (dehydrogenase activity, cell growth). The format is cell-based. Conditions: 100 μg/mL, HEK293T cells of Example 1; compared to positive and negative control; FIG. 2. The protocol: For the pyrroloquinoline quinone disodium salt-added group in Example 1, WST-8 Cell Proliferation Assay Kit (Cayman Chemical Company) was used to confirm the cell growth after addition of pyrroloquinoline quinone disodium salt. The measurement was performed by a method according to an attached protocol. The dehydrogenase activity is known to be in proportion to the number of live cells. The kit utilizes this principle and measures the dehydrogenase activity released in the medium from the cells.

The target in another series is Orexin 2 Receptor (Homo sapiens, UniProt O43614). The following applies: 100 μg/mL test substance, 1 h pre-incubation, then 50 nM orexin-A for 24 hours; HEK293T cells; n=3; FIG. 1.
For series [2], the system named is orexin receptor. Conditions: intake of suvorexant; cited from earlier work.
Series [3] relates to orexin receptor. The following applies: during glucose tolerance test; cited from earlier work.

Chain of Orexin 2 Receptor (O43614 whole entry): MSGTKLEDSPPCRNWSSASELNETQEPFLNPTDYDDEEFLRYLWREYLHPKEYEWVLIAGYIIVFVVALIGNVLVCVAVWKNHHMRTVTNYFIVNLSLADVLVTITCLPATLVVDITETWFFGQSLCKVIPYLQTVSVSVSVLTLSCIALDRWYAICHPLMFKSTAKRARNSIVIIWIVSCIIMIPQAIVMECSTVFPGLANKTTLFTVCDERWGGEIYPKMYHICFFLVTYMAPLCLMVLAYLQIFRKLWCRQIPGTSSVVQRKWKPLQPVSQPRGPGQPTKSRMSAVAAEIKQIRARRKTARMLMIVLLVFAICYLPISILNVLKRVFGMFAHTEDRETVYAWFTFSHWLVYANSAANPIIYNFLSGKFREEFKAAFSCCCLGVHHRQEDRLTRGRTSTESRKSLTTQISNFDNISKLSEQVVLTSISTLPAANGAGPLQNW
Protocol for Orexin 2 Receptor: The orexin receptor antagonist activity of a test substance was measured using an accessory to Orexin 2 Receptor Reporter Assay Kit (Cayman Chemical Company).
In this evaluation system, cells that express orexin receptors at cell surfaces are used. Binding of the agonist (orexin) to the orexin receptor causes secretion of secreted alkaline phosphatase (SEAP). Secreted SEAP is reacted with an alkaline phosphatase substrate, and the enzyme activity of SEAP is measured using a luminometer. A substance having orexin receptor antagonist action reduces the enzyme activity.
(1) HEK293T cells were prepared at a concentration of 2.5×10^5 cells/mL using Dulbecco's modified Eagle medium (high glucose content) (Dulbecco's Modified Eagle's Medium-high glucose, with 4500 mg/L glucose, L-glutamine, sodium pyruvate, and sodium bicarbonate, liquid, sterile-filtered, suitable for cell culture) (Sigma-Aldrich) to which fetal bovine serum (FBS) was added to a final concentration of 10%.
(2) The medium containing HEK293T cells prepared in (1) was seeded at 200 μL per well in Orexin 2 Receptor Reverse Transfection Strip Plate.
(3) Incubation was performed at 5% CO2 and 37° C. for 16 hours. […]
(7) The enzyme (SEAP) activity of the supernatant was measured in accordance with a protocol attached to Orexin 2 Receptor Reporter Assay Kit (Cayman Chemical Company). […]

With `CNC(=O)[C@@H](c1ccccc1)N1CCc2cc(OC)c(OC)cc2[C@@H]1CCc1ccc(C(F)(F)F)cc1` [almorexant], in the series on orexin receptor [1], the “amyloid β level and amyloid plaque formation” value is “decrease in amyloid β level and in amyloid plaque formation”. As for `O=C(O)c1cc(C(=O)O)c2c(n1)C(=O)C(=O)c1cc(C(=O)O)[nH]c1-2.[Na].[Na]` [pyrroloquinoline quinone disodium salt], in the series on HEK293T cells, the “number of cells (dehydrogenase activity relative to negative control)” value is reported as “did not show a decrease in the number of cells”. Besides, the “orexin receptor antagonist action (SEAP enzyme activity relative to negative control)” value at Orexin 2 Receptor is “orexin receptor antagonist action equivalent to that exerted by addition of 1 μM suvorexant”. On to `Cc1ccc(-n2nccn2)c(C(=O)N2CCN(c3nc4cc(Cl)ccc4o3)CC[C@H]2C)c1` [suvorexant], for which the “sleep latency, wake after sleep onset, total sleep duration, sleep efficiency” value in the series with orexin receptor [2] is “decreased sleep latency and objective wake after sleep onset and have increased total sleep duration and sleep efficiency”. Also, the “rise in blood sugar levels” value with orexin receptor [3] was “suppressing the rise in blood sugar levels”.
